Series [1] deals with J774 macrophages. The series can be described thus: Resazurin Macrophage J774 Viability Assay. Format: cell-based. As to conditions: Mus musculus, 6 point concentration range 10 μM to 10 nM, n = 3 replicates, mean of 2 independent experiments, 72 hour incubation, read-out: IC50 (1). As for the experimental part:
Potency was assessed using a viability assay based on the survival of the J774 macrophage cell line. Macrophages are closely related to osteoclasts and have been used previously as a model system for osteoclast survival (see, e.g., Luckman et al., 1998, “Heterocycle-containing bisphosphonates cause apoptosis and inhibit bone resorption by preventing protein prenylation: evidence from structure-activity relationships in J774 macrophages,” J. Bone Miner. Res., Vol. 13, pp. 1668-1678). The model is indicative both of effects on bone protection in diseases such as osteoporosis, osteoarthritis and rheumatoid arthritis, and of effects on inflammation since, like osteoclasts, J774 macrophages are dependent for survival on continued NFκB activation.
In vitro potency of test compounds was determined by incubation with J774 macrophages and subsequent determination of cell viability using resazurin.
Resazurin is a redox dye commonly used as an indicator of viability in cultured cells (see, e.g., Anoopkumar-Dukie, 2005, British Journal of Radiology, Vol. 78, pp. 945-947). It is non-toxic to cells and stable in culture medium, allowing continuous measurement of cell proliferation in vitro as either a kinetic or endpoint assay. The assay is based on the ability of viable, metabolically-active cells to reduce resazurin (which is blue and non-fluorescent) to resorufin and dihydroresorufin (which are red and fluorescent) using electrons from reducing species, such as nicotinamide adenine dinucleotide (NADPH) and flavin adenine dinucleotide (FADH). This transformation, from oxidised form to reduced form, can be measured either colorimetrically or fluorometrically. Insults that impair cell viability and proliferation also affects the capacity of cells to reduce resazurin, and the rate of dye reduction is directly proportional to the number of viable cells present.
For fluorescence measurements, 530-560 nm excitation and 590 nm emission wavelengths are typically used. For colorimetric measurements, absorbance at 570 nm (reduced form) and 600 nm (oxidised form) is typically measured. A simple calculation is performed to determine the relative quantities of the two species: a high ratio of resorufin (the reduced form) to resazurin (the oxidised form) is an indicator that cells are proliferating and viable. A low ratio indicates cells that are quiescent or non-viable.
J774 cells were plated at 10^4 cells per well in 100 μL αMEM (α Modified Eagle Medium) in 96-well plates and allowed to adhere overnight. The following day, test compounds were prepared as 100 mM solutions in DMSO. These stock solutions were diluted in DMSO and then diluted 1000× in culture medium (αMEM) before being added directly to the wells so as to give the desired final compound concentration. After a 72 hour incubation at 37° C./5% CO2, resazurin (Alamar Blue, Biosource International) was added to each well (1:10 v/v, 10 μL). The plate was then incubated at 37° C. for 3 hours and fluorescence was measured at 590 nm, with a 25 nm bandwidth.
The average results for each test compound were expressed as a percent (%) of the average control value reflecting cell viability. The average values across the concentrations tested were then plotted and the IC50 for was calculated by fitting the data to a 4-parameter IC50 equation using software from Grafit (Erithacus Software). Each experiment was repeated twice and the data are presented as the mean IC50 from both experiments.

Series [2] deals with J774 macrophages. The series can be described thus: Resazurin Macrophage J774 Viability Assay. The conditions noted are these: Mus musculus, 12 point concentration range 10 μM to 0.5 nM, n = 4 replicates, mean of 3 independent experiments, 72 hour incubation, read-out: IC50 (2). In kind it is cell-based. Background: Alamar Blue is a resazurin reagent that responds to reducing activity.

Series [3] can be described thus: Rodent pharmacokinetics study. In kind it is in vivo, Sprague-Dawley rats. The conditions noted are these: rat; for half-life: male, Sprague-Dawley, plasma, elimination phase half-life; for i.v. AUC: intravenous 1 mg/kg; for Bioavail, F: tentative oral bioavailability, F=AUC(p.o.)×Dose(i.v.)/AUC(i.v.)×Dose(p.o.); for p.o. AUC: oral 5 mg/kg in 0.5% CMC/0.1% Tween-80 (HMC-C-01-A in 2% dimethylacetamide/20% hydroxypropyl-β-cyclodextrin). As to the method:
Absorption and metabolic stability were studied using an in vivo pharmacokinetics assay.
Three male Sprague-Dawley rats, aged 8-12 weeks, were dosed with test compounds administered either orally or intravenously (dose level of 1 mg/kg body weight intravenous or 5 mg/kg body weight orally). Test compounds were formulated in 0.5% carboxymethylcellulose (CMC)/0.1% Tween-80 for administration via the oral route, or in 5% DMSO/10% solutol in saline for administration via the intravenous route. For compound HMC-C-01-A the oral administration was formulated in 2% dimethylacetamide/20% hydroxypropyl-β-cyclodextrin in water. Animals were given free access to food throughout the study except for fasting overnight and until 2 hours post dose on the day of dosing.
Blood samples were taken from the retro-orbital plexus at the following time points and placed in microtubes containing 20% K2EDTA solution:
Oral Dosing: predose; 0.25, 0.5, 1, 2, 4, 6, 8, and 24 hours post dose.
Intravenous Dosing: predose; 0.08, 0.25, 0.5, 1, 2, 4, 8, and 24 hours post dose.
Blood samples were centrifuged to obtain plasma, which was transferred to a separate container and frozen at −20° C.
For analysis, samples were thawed at room temperature and prepared by protein precipitation with acetonitrile spiked with internal standard (500 ng/mL glipizide) in the ratio 1:4 with plasma. The samples were then vortexed for 5 minutes and centrifuged for 10 minutes at 20,600×g at 4° C. 100 μL of the supernatant was collected for analysis. The standard samples were prepared similarly, after spiking blank rat plasma samples with 10 μL of analyte.
The pharmacokinetic parameters for the test compounds were calculated by Phoenix WinNonlin version 6.3 (Pharsight Corp, CA) using standard non-compartmental methods. Peak plasma concentrations (Cmax) and time of the peak plasma concentration (Tmax) were the observed values. The area under the plasma concentration-time curve (AUC) was determined by use of the linear trapezoidal rule up to the last measurable concentration (AUClast) and thereafter by extrapolation of the terminal elimination phase to infinity (AUCinf). The terminal elimination rate constant (kel) was determined by regression analysis of the linear terminal portion of the log plasma concentration-time curve. The elimination phase half-life (t1/2) was calculated as 0.693/kel.

pIC50: −log10 of the molar value. Where two headings read alike, the source gives them in different places.

The pIC50 is −log10 of the IC50, conventionally taken in molar units. Usually half-life stands for the time in which the quantity being followed falls by half. A high value points to slow decline. With `Cc1cc(S(=O)(=O)NC2CCC(C)(O)CC2)ccc1-c1ccc(F)cc1F` (single isomer, unassigned) [REF001, reference compound], the pIC50 in the series on J774 macrophages [1] was 6.92. Moreover, in the series with J774 macrophages [2], the pIC50 is 7.30. Moreover, in series [3], the half-life is 7.2 h; the “i.v. AUC” value amounted to 963 ng·min/mL; the “Bioavail, F” value was determined as 50%.

`Cc1cc(S(=O)(=O)N[C@H]2CC[C@H](O)CC2)ccc1-c1ccc(F)cc1F` [ABD735]: the negative logarithm of the IC50 (pIC50) in the series on J774 macrophages [1] was 7.00. In addition, in series [3], the half-life was 3.8 h; the “i.v. AUC” value is 1081 ng·min/mL; the “Bioavail, F” value amounted to 83%.

Regarding `C[C@]1(O)CC[C@H](NS(=O)(=O)c2ccc(-c3ncc(F)cc3F)cc2)CC1` [HMC-N-02-A, 4-(3,5-Difluoropyridin-2-yl)-N-((1r,4r)-4-hydroxy-4-methylcyclohexyl)benzenesulfonamide], in the series on J774 macrophages [1], the negative-log IC50 (pIC50) is 6.74. For the same molecule, the negative-log IC50 (pIC50) in the series with J774 macrophages [2] is 5.34. Besides, in series [3], the half-life is 6.3 h; the p.o. AUC stood at 55 ng·h/mL; the “Bioavail, F” value was 43%.

Regarding `C[C@]1(O)CC[C@H](NS(=O)(=O)c2ccc(-c3ccc(Cl)cc3C#N)cc2)CC1` [HMC-C-01-A, 4′-Chloro-2′-cyano-N-((1r,4r)-4-hydroxy-4-methylcyclohexyl)biphenyl-4-sulfonamide], the negative logarithm of the IC50 (pIC50) in the series on J774 macrophages [1] is 6.89. Moreover, the negative logarithm of the IC50 (pIC50) in the series on J774 macrophages [2] is 5.72. In addition, in series [3], the half-life is 6.2 h; the “i.v. AUC” value worked out at 900 ng·min/mL; the p.o. AUC worked out at 66.7 ng·h/mL; the “Bioavail, F” value was 89%.

Regarding `C[C@]1(O)CC[C@@H](NS(=O)(=O)c2ccc(-c3ccc(F)cc3C(F)(F)F)cc2)CC1` [HMC-C-02-B, 4′-Fluoro-N-((1s,4s)-4-hydroxy-4-methylcyclohexyl)-2′-(trifluoromethyl)-[1,1′-biphenyl]-4-sulfonamide], in the series with J774 macrophages [2], the pIC50 was 5.76.

As for `C[C@]1(O)CC[C@@H](NS(=O)(=O)c2ccc(-c3ncc(F)cc3F)c(F)c2)CC1` [HMC-N-01-B, 4-(3,5-Difluoropyridin-2-yl)-3-fluoro-N-((1s,4s)-4-hydroxy-4-methylcyclohexyl)benzenesulfonamide], the pIC50 with J774 macrophages [2] was 6.85. In series [3], the half-life is 9.1 h; the “i.v. AUC” value was 2824 ng·min/mL; the p.o. AUC came out at 141 ng·h/mL; the “Bioavail, F” value was 60%.

For `O=S(=O)(N[C@H]1CC[C@H](O)CC1)c1ccc(-c2ncc(Cl)cc2Cl)cc1` [ABD836, reference compound], the negative-log IC50 (pIC50) in the series with J774 macrophages [1] was 6.55. Moreover, in series [3], the half-life was 5.3 h; the “i.v. AUC” value is 2142 ng·min/mL; the p.o. AUC stood at 98.8 ng·h/mL; the “Bioavail, F” value was 55%.

For the molecule `C[C@]1(O)CC[C@H](NS(=O)(=O)c2ccc(-c3ccc(F)cc3F)cc2)CC1` [ABD900, reference compound], the negative-log IC50 (pIC50) in the series on J774 macrophages [1] is 6.25.

Turning to `C[C@]1(O)CC[C@@H](NS(=O)(=O)c2ccc(-c3ccc(F)cc3F)cc2)CC1` [ABD899, reference compound], the negative logarithm of the IC50 (pIC50) with J774 macrophages [1] was 7.10. Further, in series [3], the half-life was 10.8 h; the “i.v. AUC” value stood at 2133 ng·min/mL; the “Bioavail, F” value came out at 50%.

`C[C@]1(O)CC[C@@H](NS(=O)(=O)c2ccc(-c3c(F)cc(F)cc3F)cc2)CC1` [HMC-C-03-B, 2′,4′,6′-Trifluoro-N-((1s,4s)-4-hydroxy-4-methylcyclohexyl)-[1,1′-biphenyl]-4-sulfonamide]: in the series on J774 macrophages [2], the negative logarithm of the IC50 (pIC50) was 6.70. In addition, in series [3], the half-life is 8.3 h; the p.o. AUC was determined as 157 ng·h/mL; the “Bioavail, F” value is 116%.

Consider `C[C@]1(O)CC[C@@H](NS(=O)(=O)c2ccc(-c3ncc(F)cc3F)cc2)CC1` [HMC-N-02-B, 4-(3,5-Difluoropyridin-2-yl)-N-((1s,4s)-4-hydroxy-4-methylcyclohexyl)benzenesulfonamide], for which the pIC50 with J774 macrophages [2] was 6.44. In series [3], the half-life was 6 h; the “i.v. AUC” value is given as 1931 ng·min/mL; the p.o. AUC was 107 ng·h/mL; the “Bioavail, F” value is given as 66%.

On to `C[C@]1(O)CC[C@@H](NS(=O)(=O)c2ccc(-c3ccc(F)cc3F)c(F)c2)CC1` [HMC-C-04-B, 2,2′,4′-Trifluoro-N-((1s,4s)-4-hydroxy-4-methylcyclohexyl)-[1,1′-biphenyl]-4-sulfonamide], for which the negative logarithm of the IC50 (pIC50) with J774 macrophages [2] was 7.22. For the same molecule, in series [3], the half-life was 5.5 h; the p.o. AUC came to 156 ng·h/mL; the “Bioavail, F” value was 59%.

For the molecule `C[C@]1(O)CC[C@@H](NS(=O)(=O)c2ccc(-c3ccc(Cl)cc3C#N)cc2)CC1` [HMC-C-01-B, 4′-Chloro-2′-cyano-N-((1s,4s)-4-hydroxy-4-methylcyclohexyl)-[1,1′-biphenyl]-4-sulfonamide], the pIC50 in the series on J774 macrophages [2] is 6.80. Moreover, in series [3], the half-life is 5.7 h; the “i.v. AUC” value amounted to 1539 ng·min/mL; the p.o. AUC amounted to 85.3 ng·h/mL; the “Bioavail, F” value is listed as 67%.

With `C[C@]1(O)CC[C@H](NS(=O)(=O)c2ccc(-c3ncc(Cl)cc3Cl)c(F)c2)CC1` [HMC-N-04-A, 4-(3,5-Dichloropyridin-2-yl)-3-fluoro-N-((1r,4r)-4-hydroxy-4-methylcyclohexyl)benzenesulfonamide], the negative logarithm of the IC50 (pIC50) in the series with J774 macrophages [1] was 6.74. Further, in series [3], the half-life was 2.9 h; the “i.v. AUC” value is 1279 ng·min/mL; the p.o. AUC stood at 70 ng·h/mL; the “Bioavail, F” value is on record as 66%.

On to `C[C@]1(O)CC[C@H](NS(=O)(=O)c2ccc(-c3ccc(F)cc3F)c(F)c2)CC1` [HMC-C-04-A, 2,2′,4′-Trifluoro-N-((1r,4r)-4-hydroxy-4-methylcyclohexyl)-[1,1′-biphenyl]-4-sulfonamide], for which the negative logarithm of the IC50 (pIC50) with J774 macrophages [2] was 6.30.

`C[C@]1(O)CC[C@@H](NS(=O)(=O)c2ccc(-c3ncc(Cl)cc3Cl)cc2)CC1` [HMC-N-03-B, 4-(3,5-Dichloropyridin-2-yl)-N-((1s,4s)-4-hydroxy-4-methylcyclohexyl)benzenesulfonamide]: the pIC50 in the series with J774 macrophages [2] is 7.10. In addition, in series [3], the half-life is 7.4 h; the p.o. AUC was 193 ng·h/mL; the “Bioavail, F” value turned out to be 84%.

The values above are taken from patent US9624167B2, “N-(4-hydroxy-4-methyl-cyclohexyl)-4-phenyl-benzenesulfonamides and N-(4-hydroxy-4-methyl-cyclohexyl)-4-(2-pyridyl)benzenesulfonamides and their therapeutic use” (PIMCO 2664 LIMITED, priority 2013, dated 2017).
